Numbers after ± are expanded uncertainties.
Experiments:
[1] = for vapor or sublimation pressure: Closed cell (Static) method; for Normal melting temperature: DTA
[2] = Molar enthalpy of transition or fusion; settings: Crystal; DSC

COC(=O)c1ccc(Br)cc1 [methyl 4-bromobenzoate]
[1]
Settings	vapor or sublimation pressure [kPa]
293.31 K, Crystal	0.00042 ± 0.0001
295.32 K, Crystal	0.00054 ± 0.0001
297.3 K, Crystal	0.00068 ± 0.00011
299.26 K, Crystal	0.00087 ± 0.00011
301.24 K, Crystal	0.00109 ± 0.00011
303.23 K, Crystal	0.00139 ± 0.00012
305.21 K, Crystal	0.00173 ± 0.00012
307.22 K, Crystal	0.0022 ± 0.00014
309.17 K, Crystal	0.00277 ± 0.00015
311.2 K, Crystal	0.00345 ± 0.00017
313.13 K, Crystal	0.00422 ± 0.0002
315.14 K, Crystal	0.00523 ± 0.00023
317.13 K, Crystal	0.00651 ± 0.00028
319.04 K, Crystal	0.00797 ± 0.00033
321.09 K, Crystal	0.00985 ± 0.0004
323.08 K, Crystal	0.0121 ± 0.00049
325.13 K, Crystal	0.01501 ± 0.00055
327 K, Crystal	0.01789 ± 0.00059
329.05 K, Crystal	0.02213 ± 0.00066
331.03 K, Crystal	0.02686 ± 0.00073
333 K, Crystal	0.0324 ± 0.00081
335.03 K, Crystal	0.03924 ± 0.00092
336.96 K, Crystal	0.04713 ± 0.001
338.94 K, Crystal	0.05664 ± 0.0012
340.91 K, Crystal	0.0673 ± 0.0014
342.9 K, Crystal	0.0811 ± 0.0016
344.79 K, Crystal	0.09642 ± 0.0018
346.85 K, Crystal	0.1156 ± 0.0021
348.81 K, Crystal	0.1363 ± 0.0021
354.73 K, Liquid	0.2096 ± 0.0027
356.68 K, Liquid	0.233 ± 0.0029
358.69 K, Liquid	0.259 ± 0.0032
360.68 K, Liquid	0.2932 ± 0.0034
362.63 K, Liquid	0.3282 ± 0.0037
364.63 K, Liquid	0.365 ± 0.0041
366.59 K, Liquid	0.4053 ± 0.0044
368.56 K, Liquid	0.4511 ± 0.0048
370.53 K, Liquid	0.5029 ± 0.0053
372.52 K, Liquid	0.5539 ± 0.0057
374.48 K, Liquid	0.6187 ± 0.0062
376.42 K, Liquid	0.6825 ± 0.0068
378.43 K, Liquid	0.752 ± 0.0074

Settings	Normal melting temperature [°C]
[1], Crystal	78.07 ± 0.42

Settings	Molar enthalpy of transition or fusion [kcal/mol]
[2]	6.17 ± 0.167

COC(=O)c1ccc(Cl)cc1 [methyl 4-chlorobenzoate]
[1]
Settings	vapor or sublimation pressure [kPa]
276.44 K, Crystal	0.00043 ± 0.0001
278.37 K, Crystal	0.00055 ± 0.0001
280.36 K, Crystal	0.00071 ± 0.0001
282.35 K, Crystal	0.00092 ± 0.0001
284.34 K, Crystal	0.00118 ± 0.00011
285.3 K, Liquid	0.00301 ± 0.00015
286.32 K, Crystal	0.00148 ± 0.00011
287.31 K, Liquid	0.00363 ± 0.00017
288.29 K, Crystal	0.00191 ± 0.00012
289.27 K, Liquid	0.00436 ± 0.0002
290.31 K, Crystal	0.00242 ± 0.00014
291.28 K, Liquid	0.0052 ± 0.00023
292.3 K, Crystal	0.00308 ± 0.00016
293.26 K, Liquid	0.00618 ± 0.00026
294.26 K, Crystal	0.00389 ± 0.00018
295.27 K, Liquid	0.00739 ± 0.00031
296.29 K, Crystal	0.00489 ± 0.00022
297.26 K, Liquid	0.00872 ± 0.00036
298.24 K, Crystal	0.00611 ± 0.00026
299.23 K, Liquid	0.01031 ± 0.00042
300.23 K, Crystal	0.00765 ± 0.00032
301.21 K, Liquid	0.01212 ± 0.00048
302.21 K, Crystal	0.00956 ± 0.00039
303.18 K, Liquid	0.01428 ± 0.00053
304.18 K, Crystal	0.01181 ± 0.00047
305.19 K, Liquid	0.01678 ± 0.00057
306.12 K, Crystal	0.01452 ± 0.00054
307.17 K, Liquid	0.01959 ± 0.00061
308.18 K, Crystal	0.01815 ± 0.00059
309.12 K, Liquid	0.02291 ± 0.00067
310.15 K, Crystal	0.0222 ± 0.00066
311.13 K, Liquid	0.02675 ± 0.00073
312.09 K, Crystal	0.02704 ± 0.00073
313.12 K, Liquid	0.0311 ± 0.00079
314.62 K, Liquid	0.03483 ± 0.00085
316.12 K, Liquid	0.03877 ± 0.00091
318.07 K, Liquid	0.0448 ± 0.001
318.88 K, Liquid	0.04755 ± 0.001
321.14 K, Liquid	0.05585 ± 0.0012
322.9 K, Liquid	0.06343 ± 0.0013
324.86 K, Liquid	0.07327 ± 0.0014
327.05 K, Liquid	0.084 ± 0.0016
329.03 K, Liquid	0.0959 ± 0.0018
331 K, Liquid	0.1092 ± 0.002
332.98 K, Liquid	0.125 ± 0.0022
333.97 K, Liquid	0.1325 ± 0.002

Settings	Normal melting temperature [°C]
[1], Crystal	41.98 ± 0.44

Settings	Molar enthalpy of transition or fusion [kcal/mol]
[2]	5.09 ± 0.143
